Here are results for 1 molecule from article PMC6576746, “Rational discovery of dual-indication multi-target PDE/Kinase inhibitor for precision anti-cancer therapy using structural systems pharmacology” (PLoS Computational Biology, 2019).

Holding throughout (test): biochemical
Holding throughout (set-up): DiscoverX KinomeScan competition binding assay across human kinases; per cent of control at 10 and 100 uM

In one test the target is FLT4 (Homo sapiens, UniProt P35916). Conditions: competition binding, % of control. In outline: (§1)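 Binding is expressed as %control, normalised between positive and negative control signals. The compound (levosimendan) was tested at 10 μM and 100 μM in the DiscoverX KinomeScan competition binding format against human kinases.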
For a further test, the target named is CSNK1E (Homo sapiens, UniProt P49674). Conditions: competition binding, % of control; read-out: Percent Control (100 uM Levosimendan). In outline:
as §1

The next test addresses DMPK (Homo sapiens, UniProt Q09013). The settings on record: competition binding, % of control. The procedure, abridged:
as §1

Another test addresses SRPK2 (Homo sapiens, UniProt P78362). The settings on record: competition binding, % of control; read-out: Percent Control (100 uM Levosimendan). In outline:
as §1

Another test addresses TNK1 (Homo sapiens, UniProt Q13470). The settings on record: competition binding, % of control; read-out: Percent Control (100 uM Levosimendan). In outline: as §1
The target in another test is T1, TAK1 (Homo sapiens, UniProt O43318).
T1 construct: gene MAP3K7
Conditions: competition binding, % of control; read-out: Percent Control (100 uM Levosimendan). The procedure, abridged:
as §1

In the next test the target is EPHA7 (Homo sapiens, UniProt Q15375). The settings on record: competition binding, % of control; read-out: Percent Control (100 uM Levosimendan). The procedure, abridged: as §1
The target of another test is ANKK1 (Homo sapiens, UniProt Q8NFD2). Conditions: competition binding, % of control; read-out: Percent Control (100 uM Levosimendan). The procedure, abridged: as §1
Another test concerns the target T2, CAMK1B (Homo sapiens, UniProt Q6P2M8).
T2 construct: gene PNCK
Conditions: competition binding, % of control; read-out: Percent Control (100 uM Levosimendan). In outline:
as §1

For a further test, the target named is T3, PFTAIRE2 (Homo sapiens, UniProt Q96Q40).
T3 construct: gene CDK15
Conditions: competition binding, % of control; read-out: Percent Control (100 uM Levosimendan). The procedure, abridged:
as §1

The target in test [1] is T4, ABL1(Y253F)-phosphorylated (Homo sapiens, UniProt P00519, Y253F).
T4 construct: phosphorylated
Conditions: competition binding, % of control; read-out: Percent Control (100 uM Levosimendan). The procedure, abridged: as §1

The target of another test is T5, AMPK-alpha1 (Homo sapiens, UniProt Q13131).
T5 construct: gene PRKAA1
The settings on record: competition binding, % of control; read-out: Percent Control (100 uM Levosimendan). The procedure, abridged: as §1

For a further test, the target named is CAMK2A (Homo sapiens, UniProt Q9UQM7). Conditions: competition binding, % of control; read-out: Percent Control (100 uM Levosimendan). The procedure, abridged: as §1
A further test concerns the target TNIK (Homo sapiens, UniProt Q9UKE5). Conditions: competition binding, % of control. The procedure, abridged:
as §1

The target in the next test is FYN (Homo sapiens, UniProt P06241). The settings on record: competition binding, % of control. In outline:
as §1

The target in a further test is IRAK3 (Homo sapiens, UniProt Q9Y616). Conditions: competition binding, % of control; read-out: Percent Control (100 uM Levosimendan). In outline:
as §1

In test [2] the target is T6, RPS6KA5(Kin.Dom.1-N-terminal) (Homo sapiens, UniProt O75582).
T6 construct: Kin.Dom.1-N-terminal
The settings on record: competition binding, % of control; read-out: Percent Control (100 uM Levosimendan). In outline:
as §1

The next test concerns the target PIK3CB (Homo sapiens, UniProt P42338). The settings on record: competition binding, % of control; read-out: Percent Control (100 uM Levosimendan). In outline: as §1
The mark [3] stands for this setting: read-out: Percent Control (10 uM Levosimendan).
Setting [4] is: read-out: Percent Control (100 uM Levosimendan).

Chain of TNIK (Q9UKE5 whole entry): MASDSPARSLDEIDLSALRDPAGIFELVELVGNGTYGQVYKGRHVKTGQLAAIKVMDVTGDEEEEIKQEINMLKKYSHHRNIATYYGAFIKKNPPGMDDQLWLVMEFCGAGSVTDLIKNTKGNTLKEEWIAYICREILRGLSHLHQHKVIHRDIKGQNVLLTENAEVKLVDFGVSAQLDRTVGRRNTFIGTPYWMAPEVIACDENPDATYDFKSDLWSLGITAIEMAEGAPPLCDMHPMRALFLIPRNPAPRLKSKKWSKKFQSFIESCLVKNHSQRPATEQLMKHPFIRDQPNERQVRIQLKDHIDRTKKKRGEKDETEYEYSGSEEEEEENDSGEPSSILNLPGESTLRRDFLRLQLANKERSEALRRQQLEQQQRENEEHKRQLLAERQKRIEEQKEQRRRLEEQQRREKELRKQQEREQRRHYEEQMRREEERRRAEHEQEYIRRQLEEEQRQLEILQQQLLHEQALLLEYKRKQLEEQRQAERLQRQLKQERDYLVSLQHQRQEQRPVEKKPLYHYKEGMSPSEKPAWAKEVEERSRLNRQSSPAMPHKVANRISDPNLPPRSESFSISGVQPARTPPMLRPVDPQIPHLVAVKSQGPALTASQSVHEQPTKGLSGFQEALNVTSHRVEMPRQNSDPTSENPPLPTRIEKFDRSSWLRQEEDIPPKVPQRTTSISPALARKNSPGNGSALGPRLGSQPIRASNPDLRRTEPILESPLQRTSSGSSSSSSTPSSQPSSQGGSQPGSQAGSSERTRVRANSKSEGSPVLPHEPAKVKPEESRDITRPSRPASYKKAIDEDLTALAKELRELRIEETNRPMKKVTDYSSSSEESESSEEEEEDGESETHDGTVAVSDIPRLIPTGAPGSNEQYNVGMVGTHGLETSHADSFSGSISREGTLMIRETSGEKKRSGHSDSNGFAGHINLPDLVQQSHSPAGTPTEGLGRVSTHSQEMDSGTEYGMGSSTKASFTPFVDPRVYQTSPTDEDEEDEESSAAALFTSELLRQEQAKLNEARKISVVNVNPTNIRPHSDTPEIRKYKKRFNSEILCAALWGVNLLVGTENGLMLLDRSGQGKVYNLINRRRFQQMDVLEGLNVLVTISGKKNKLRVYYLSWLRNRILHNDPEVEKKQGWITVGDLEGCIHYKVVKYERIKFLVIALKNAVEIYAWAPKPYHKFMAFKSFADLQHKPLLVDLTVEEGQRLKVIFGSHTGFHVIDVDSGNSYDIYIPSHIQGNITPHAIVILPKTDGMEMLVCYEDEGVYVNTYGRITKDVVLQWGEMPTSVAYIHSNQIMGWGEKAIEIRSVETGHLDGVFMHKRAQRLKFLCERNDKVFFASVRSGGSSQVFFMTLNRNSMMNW
Chain of DMPK (Q09013 whole entry): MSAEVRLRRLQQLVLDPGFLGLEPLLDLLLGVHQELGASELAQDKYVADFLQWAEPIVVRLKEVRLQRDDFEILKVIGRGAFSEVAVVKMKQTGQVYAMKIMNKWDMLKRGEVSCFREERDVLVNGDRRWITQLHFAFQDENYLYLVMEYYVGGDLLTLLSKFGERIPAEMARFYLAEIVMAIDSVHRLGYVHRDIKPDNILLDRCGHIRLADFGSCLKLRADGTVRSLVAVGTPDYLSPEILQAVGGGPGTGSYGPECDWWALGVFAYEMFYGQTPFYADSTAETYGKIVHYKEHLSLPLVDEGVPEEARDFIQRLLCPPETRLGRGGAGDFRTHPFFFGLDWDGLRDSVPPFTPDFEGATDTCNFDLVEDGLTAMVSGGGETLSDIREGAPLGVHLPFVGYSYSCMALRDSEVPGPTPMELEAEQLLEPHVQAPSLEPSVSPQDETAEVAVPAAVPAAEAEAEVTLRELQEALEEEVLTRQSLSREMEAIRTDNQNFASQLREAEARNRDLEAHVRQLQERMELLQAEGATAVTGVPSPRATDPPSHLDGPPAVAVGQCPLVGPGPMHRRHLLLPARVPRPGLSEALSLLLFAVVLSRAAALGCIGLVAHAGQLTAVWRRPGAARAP
Chain of FLT4 (P35916 whole entry): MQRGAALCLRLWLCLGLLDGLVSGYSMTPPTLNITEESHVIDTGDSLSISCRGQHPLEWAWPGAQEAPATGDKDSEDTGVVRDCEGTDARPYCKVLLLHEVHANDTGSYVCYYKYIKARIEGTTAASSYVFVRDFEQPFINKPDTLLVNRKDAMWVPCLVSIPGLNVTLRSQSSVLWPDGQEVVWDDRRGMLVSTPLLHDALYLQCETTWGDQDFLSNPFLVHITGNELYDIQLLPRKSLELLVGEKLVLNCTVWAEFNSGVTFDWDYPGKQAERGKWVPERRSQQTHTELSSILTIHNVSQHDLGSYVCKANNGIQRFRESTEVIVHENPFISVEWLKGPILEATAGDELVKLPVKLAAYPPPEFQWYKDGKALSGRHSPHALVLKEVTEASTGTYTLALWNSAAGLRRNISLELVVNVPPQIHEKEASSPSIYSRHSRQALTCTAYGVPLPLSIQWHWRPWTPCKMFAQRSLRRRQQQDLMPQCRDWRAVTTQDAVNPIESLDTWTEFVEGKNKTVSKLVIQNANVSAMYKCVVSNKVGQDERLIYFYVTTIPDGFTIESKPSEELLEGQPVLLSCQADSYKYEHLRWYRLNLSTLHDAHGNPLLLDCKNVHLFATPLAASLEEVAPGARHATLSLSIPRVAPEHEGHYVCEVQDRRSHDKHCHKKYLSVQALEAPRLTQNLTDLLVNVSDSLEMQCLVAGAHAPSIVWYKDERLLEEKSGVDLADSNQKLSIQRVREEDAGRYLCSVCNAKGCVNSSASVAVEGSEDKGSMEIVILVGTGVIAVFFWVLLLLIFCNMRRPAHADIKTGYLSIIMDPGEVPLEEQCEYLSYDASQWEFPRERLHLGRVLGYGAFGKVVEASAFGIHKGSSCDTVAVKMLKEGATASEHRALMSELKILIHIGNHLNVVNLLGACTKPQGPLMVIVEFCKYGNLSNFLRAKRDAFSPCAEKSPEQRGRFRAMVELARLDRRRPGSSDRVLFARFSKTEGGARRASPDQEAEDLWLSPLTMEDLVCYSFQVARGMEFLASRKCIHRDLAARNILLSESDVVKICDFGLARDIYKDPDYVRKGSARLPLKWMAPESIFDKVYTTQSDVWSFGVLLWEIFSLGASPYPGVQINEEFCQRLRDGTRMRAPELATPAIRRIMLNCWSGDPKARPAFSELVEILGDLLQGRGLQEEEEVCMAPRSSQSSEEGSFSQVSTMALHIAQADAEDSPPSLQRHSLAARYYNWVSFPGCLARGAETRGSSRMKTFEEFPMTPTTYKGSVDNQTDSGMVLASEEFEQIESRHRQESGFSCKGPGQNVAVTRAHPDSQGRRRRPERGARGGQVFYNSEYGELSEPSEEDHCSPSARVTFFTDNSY
Chain of FYN (P06241 whole entry): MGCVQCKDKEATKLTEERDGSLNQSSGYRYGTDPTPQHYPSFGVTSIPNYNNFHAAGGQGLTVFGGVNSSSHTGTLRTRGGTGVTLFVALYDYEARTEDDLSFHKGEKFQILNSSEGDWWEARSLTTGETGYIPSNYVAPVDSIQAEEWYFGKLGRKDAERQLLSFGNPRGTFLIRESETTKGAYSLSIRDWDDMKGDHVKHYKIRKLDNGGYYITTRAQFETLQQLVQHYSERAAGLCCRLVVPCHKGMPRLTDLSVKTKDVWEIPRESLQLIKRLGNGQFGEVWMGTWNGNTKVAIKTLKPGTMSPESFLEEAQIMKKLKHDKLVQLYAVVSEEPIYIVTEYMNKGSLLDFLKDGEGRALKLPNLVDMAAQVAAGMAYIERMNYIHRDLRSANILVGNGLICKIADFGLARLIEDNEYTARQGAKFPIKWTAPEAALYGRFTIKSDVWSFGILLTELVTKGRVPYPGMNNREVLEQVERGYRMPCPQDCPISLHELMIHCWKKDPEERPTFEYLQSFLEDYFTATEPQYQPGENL
Chain of PIK3CB (P42338 whole entry): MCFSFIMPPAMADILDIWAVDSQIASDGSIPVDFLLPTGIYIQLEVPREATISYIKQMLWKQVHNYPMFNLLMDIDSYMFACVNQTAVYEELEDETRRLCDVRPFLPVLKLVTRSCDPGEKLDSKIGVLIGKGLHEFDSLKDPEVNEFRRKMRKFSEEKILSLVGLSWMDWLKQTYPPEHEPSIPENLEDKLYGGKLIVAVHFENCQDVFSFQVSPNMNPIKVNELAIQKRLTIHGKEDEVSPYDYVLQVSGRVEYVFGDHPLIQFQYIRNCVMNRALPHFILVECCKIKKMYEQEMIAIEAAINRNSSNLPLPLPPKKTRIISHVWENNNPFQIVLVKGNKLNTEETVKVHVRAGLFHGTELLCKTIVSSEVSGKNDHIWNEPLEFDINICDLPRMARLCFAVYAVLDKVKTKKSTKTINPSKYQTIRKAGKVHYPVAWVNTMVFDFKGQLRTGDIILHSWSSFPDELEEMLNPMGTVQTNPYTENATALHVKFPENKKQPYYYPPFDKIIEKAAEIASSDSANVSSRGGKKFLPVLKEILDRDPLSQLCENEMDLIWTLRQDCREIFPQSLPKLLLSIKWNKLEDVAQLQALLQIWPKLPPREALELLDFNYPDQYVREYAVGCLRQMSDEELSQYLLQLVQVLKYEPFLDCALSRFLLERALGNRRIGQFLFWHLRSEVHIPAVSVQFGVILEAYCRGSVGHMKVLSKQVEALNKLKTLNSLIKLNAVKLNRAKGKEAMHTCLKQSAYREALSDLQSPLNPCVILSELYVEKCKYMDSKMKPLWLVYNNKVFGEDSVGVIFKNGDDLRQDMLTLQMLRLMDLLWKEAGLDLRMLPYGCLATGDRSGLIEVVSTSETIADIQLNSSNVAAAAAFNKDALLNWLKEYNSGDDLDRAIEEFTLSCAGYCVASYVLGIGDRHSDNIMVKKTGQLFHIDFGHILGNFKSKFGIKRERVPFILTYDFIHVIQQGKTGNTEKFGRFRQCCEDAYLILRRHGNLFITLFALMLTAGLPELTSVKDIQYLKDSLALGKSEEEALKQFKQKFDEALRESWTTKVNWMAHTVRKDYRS

Turning to `C[C@@H]1CC(=O)NN=C1c1ccc(NN=C(C#N)C#N)cc1` [levosimendan], the remaining binding at 10 µM came out at 100% at FLT4 (setting [3]), 100% at DMPK (setting [3]), 77% on TNIK (setting [3]) and 96% at FYN (setting [3]). Besides, the remaining binding at 100 µM at FLT4 (setting [4]) was found to be 49%; at CSNK1E, 63%; at DMPK (setting [4]) it was 29%; on SRPK2 it was 100%; on TNK1, 100%; on TAK1, 78%. The remaining binding at 100 µM on EPHA7 came to 85%; on ANKK1, 77%; at CAMK1B, 100%; at PFTAIRE2 it was 85%; in test [1], 87%; at AMPK-alpha1, 83%. Besides, the remaining binding at 100 µM came out at 73% on CAMK2A; 32% at TNIK (setting [4]); 47% on FYN (setting [4]); 100% at IRAK3; 62% in [2]; 100% on PIK3CB.
